Measured values published in article PMC9271048, “Probing strigolactone perception mechanisms with rationally designed small-molecule agonists stimulating germination of root parasitic weeds” (Nature Communications, 2022).
Like-named read-outs stand apart in the source and are kept apart here.

Assays:
[1] = target: ShHTL7 (Striga hermonthica, UniProt A0A0M3PNA2); test: Competitive inhibition of ShHTL7 with Yoshimulactone Green (YLG) as substrate; format: biochemical
How it was run: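 YLG hydrolysis by ShHTL7 followed by fluorescence (ex 480/em 520 nm) every 1 min for 30 min; compounds and YLG from fresh DMSO stocks. After subtracting no-enzyme background, the linear 8-min increase was used; IC50 fitted from relative inhibition versus compound concentration.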

[2] = tested on: P. aegyptiaca seeds; test: P. aegyptiaca seed germination assay; format: in vivo, Phelipanche aegyptiaca; parameters: P. aegyptiaca seed germination activity, source data average: unit of the concentration uncertain; settings: for P. aegyptiaca seed germination activity, source data average: Supplementary Fig. 9b; for EC50: Phelipanche aegyptiaca
How it was run: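 Germination scored at ×20 magnification after one week dark incubation at 25 °C with compound (acetone stock diluted 999/1 in water). Seeds were NaClO-sterilized and conditioned 4 days at 25 °C in the dark beforehand; 1‰ acetone negative, rac-GR24 positive control; triplicate biological repeats.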

[3] = tested on: PaKAI2s (5 KAI2 protein homologs in P. aegyptiaca); test: YLG-based competition assay on KAI2 protein homologs of P. aegyptiaca; format: biochemical, Phelipanche aegyptiaca; settings: Supplementary Fig. 27
Description: In P. aegyptiaca, 5 KAI2s have been proposed as the SL receptors for the regulation of seed germination. […] The high sequence similarity may explain the consistency of these compounds in inducing germination in both S. hermonthica and P. aegyptiaca.
The excitation and emission wavelengths of YLG are 480 and 520 nm, respectively. We used a fluorescence spectrophotometer (CARY Eclipse) to detect the fluorescence intensity change of YLG during the enzymatic hydrolysis assay process. All the testing compounds and YLG were dissolved in DMSO and prepared as stock solutions just before use. […] The changes of fluorescence at 520 nm of each well were recorded every 1 min for 30 min. Using the reaction mixture without adding enzyme and tested compounds as the background control. After subtracting the background hydrolysis, a linear fluorescence increase in 8 min was used for further inspection. The IC50 values were determined via fitting relative inhibition percentages with the varying concentrations of compounds in Microsoft Excel.
Supplementary Fig. 27. Binding of compounds 4a, (R)- and (S)-4a, and 4g-i to the HTL proteins in S. hermonthica and KAI2 protein homologs in P. aegyptiaca. In the competitive inhibitory activity assay, YLG (3 µM) was used as the fluorogenic substrate. Error bar indicates SD (n = 3 biologically independent experiments).
(1 picture or pasted object on this page, not shown here)

[4] = Chemical reactivity analysis (HPLC, methanol/PBS pH 7.4); format: physicochemical; settings: for half-life at 0.5 mM: methanol/phosphate-buffered saline mixture, read-out: half-life time (t1/2), source data average (converted)
Procedure: Chemical reactivity is an important factor in the bioactivity of natural and synthetic SLs.
One hundred twenty microliters of sample solution was added to a solution of PBS (10 mM, pH 7.4, 810 μL) and methanol (270 μL). The solution was stirred vigorously for 30 s and then transferred to HPLC vial, and the vial was stored at 26 ± 1 °C. […] The analytical column was Extend-C18 (4.6 mm × 150 mm × 5 μm). The mobile phases were CH3CN and H2O (containing 0.1% HCO2H), VCH3CN:VH2O = 50:50, with a flow rate of 1 mL/min, and an injection volume of 5 μL. The percentage of remaining compounds in the solution was calculated from the peak area. The half-life times (t1/2) of samples were calculated.

[5] = ShHTL7, YLG competition, Supplementary Fig. 27, read-out: IC50, replicate 1
[6] = ShHTL7, YLG competition, Supplementary Fig. 27, read-out: IC50, replicate 2
[7] = ShHTL7, YLG competition, Supplementary Fig. 27, read-out: IC50, replicate 3
[8] = wild-type ShHTL7, average of 3, source data of Fig. 2a,b, Supplementary Figs. 8a, 9a, 20b, read-out: IC50, competitive ShHTL7 inhibition (YLG), source data average
[9] = KAI2C, YLG competition, read-out: IC50, replicate 1
[10] = KAI2C, YLG competition, read-out: IC50, replicate 2
[11] = KAI2C, YLG competition, read-out: IC50, replicate 3
[12] = KAI2C, average of 3 replicates, read-out: IC50, average
[13] = KAI2d1, YLG competition, read-out: IC50, replicate 1
[14] = KAI2d1, YLG competition, read-out: IC50, replicate 2
[15] = KAI2d1, YLG competition, read-out: IC50, replicate 3
[16] = KAI2d1, average of 3 replicates, read-out: IC50, average
[17] = KAI2d2, YLG competition, read-out: IC50, replicate 1
[18] = KAI2d2, YLG competition, read-out: IC50, replicate 2
[19] = KAI2d2, YLG competition, read-out: IC50, replicate 3
[20] = KAI2d2, average of 3 replicates, read-out: IC50, average
[21] = KAI2d3, YLG competition, read-out: IC50, replicate 1
[22] = KAI2d3, YLG competition, read-out: IC50, replicate 2
[23] = KAI2d3, YLG competition, read-out: IC50, replicate 3
[24] = KAI2d3, average of 3 replicates, read-out: IC50, average
[25] = KAI2d4, YLG competition, read-out: IC50, replicate 1
[26] = KAI2d4, YLG competition, read-out: IC50, replicate 2
[27] = KAI2d4, YLG competition, read-out: IC50, replicate 3
[28] = KAI2d4, average of 3 replicates, read-out: IC50, average
[29] = Supplementary Fig. 10 source data, methanol/PBS pH 7.4, 26 °C
[30] = ShHTL7, average of 3 replicates, Supplementary Fig. 27, read-out: IC50, average
[31] = YLG as substrate, text and Fig. 2, read-out: IC50, competitive ShHTL7 inhibition (YLG assay)
[32] = source data of Fig. 2c and Supplementary Fig. 8b, average of 3, read-out: P. aegyptiaca germination EC50 values, source data average (converted)

Chain of ShHTL7 (A0A0M3PNA2 entry or part of it): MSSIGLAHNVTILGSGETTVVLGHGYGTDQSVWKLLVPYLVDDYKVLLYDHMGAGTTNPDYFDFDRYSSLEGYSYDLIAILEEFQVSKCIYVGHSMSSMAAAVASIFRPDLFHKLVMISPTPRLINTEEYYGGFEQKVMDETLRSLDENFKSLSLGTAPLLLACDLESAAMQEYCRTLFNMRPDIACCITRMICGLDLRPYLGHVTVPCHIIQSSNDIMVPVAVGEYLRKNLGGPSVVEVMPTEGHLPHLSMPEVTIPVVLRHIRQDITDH

Compound	IC50 [1, 5] [µM]	IC50 [1, 6] [µM]	IC50 [1, 7] [µM]	IC50 [1, 8] [µM]	IC50 [3, 9] [µM]	IC50 [3, 10] [µM]	IC50 [3, 11] [µM]	IC50 [3, 12] [µM]	IC50 [3, 13] [µM]	IC50 [3, 14] [µM]	IC50 [3, 15] [µM]	IC50 [3, 16] [µM]	IC50 [3, 17] [µM]	IC50 [3, 18] [µM]	IC50 [3, 19] [µM]	IC50 [3, 20] [µM]	IC50 [3, 21] [µM]	IC50 [3, 22] [µM]	IC50 [3, 23] [µM]	IC50 [3, 24] [µM]	also measured
CC1=CC(CC(=O)N2CCN(C(=O)COc3ccc(Br)cc3C)CC2)OC1=O (stereo not drawn) [4i]	5.98	5.2	4.35	5.18	48.7	57	49.5	51.7	24	16.7	20.1	20.3	54.2	57.7	57.5	56.5	51.4	41.1	40.4	44.3	P. aegyptiaca seed germination activity, source data average ([2]; 0.1 (unit uncertain) as printed): 6.798%; P. aegyptiaca seed germination activity, source data average ([2]; 1 (unit uncertain) as printed): 17.2667%; P. aegyptiaca seed germination activity, source data average ([2]; 10 (unit uncertain) as printed): 39.4856%; IC50 [3, 25]: 30.7 µM; IC50 [3, 26]: 31.7 µM; IC50 [3, 27]: 26.9 µM; IC50 [3, 28]: 29.8 µM; reactivity in methanol/PBS ([4]; 1:3 methanol and PBS (10 mM) pH 7.4): no apparent hydrolysis was observed in 6 days; half-life time (t1/2), source data average [4, 29]: >144 h
CC1=C[C@@H](OC(=O)N2CCN(C(=O)COc3ccc(Br)cc3C)CC2)OC1=O [(R)-4a]	40.1	33.7	33.7	35.8	53.2	56.3	44.7	51.4	> 100	> 100	> 100	> 100	> 100	> 100	> 100	> 100	84.6	78.5	91.5	84.9	IC50 [1, 30]: 35.8 µM; IC50 [1, 31]: 35.8 ± 3.69 µM; EC50 [2, 32]: 1270 nM; IC50 [3, 25]: > 100 µM; IC50 [3, 26]: > 100 µM; IC50 [3, 27]: > 100 µM; IC50 [3, 28]: > 100 µM; half-life at 0.5 mM [4, 29]: 419 min
CC1=C[C@H](OC(=O)N2CCN(C(=O)COc3ccc(Br)cc3C)CC2)OC1=O [(S)-4a]	1.06	0.837	0.921	0.938	5.99	5.59	5.14	5.57	14.8	11.8	14.3	13.6	41.7	36.2	35.4	37.8	11.9	8.47	7.99	9.45	IC50 [1, 30]: 0.938 µM; IC50 [1, 31]: 0.94 ± 0.11 µM; EC50 ([2]; read-out: EC50, P. aegyptiaca seed germination): 0.0339 nM; EC50 [2, 32]: 0.021 nM; fold improved P. aegyptiaca seed germination activity, (S)-4a versus (R)-4a ([2]; in vivo): over 40,000 fold; IC50 [3, 25]: 6.05 µM; IC50 [3, 26]: 6.25 µM; IC50 [3, 27]: 8.45 µM; IC50 [3, 28]: 6.92 µM; half-life at 0.5 mM [4, 29]: 463 min
